The source of these data is patent publication US4873225A, “1-n-(4-amino-3-fluoro-2-hydroxybutyryl)-kanamycins” (Zaidan Hojin Biseibutsu Kagaku Kenkyu Kai, priority 1987, dated 1989).

For series [1], the system named is gram-positive bacteria, gram-negative bacteria and various kanamycin-resistant strains of bacteria. Put plainly: Antibacterial activity in vitro, in words. The format is cell-based. Conditions: tested in vitro. As for the experimental part:
The present inventors have carried out an extensive investigation in an attempt to produce such novel kanamycin derivatives which are capable of fulfilling such demands. […] The present invention has been completed on the basis of these above findings.
(§1) Antibacterial activities of each of the abovementioned compounds of the general formula (I) according to this invention were determined by measuring their minimum growth inhibitory concentrations (MIC, mcg/ml) against various bacteria in accordance with a standard serial dilution method. The pH condition of the incubation medium where the MIC data were measured was set at pH 7, unless otherwise specifically indicated. For the sake of comparison, the antibacterial spectra of 1-N-{(S)-4-amino-2-hydroxybutyryl}kanamycin A (i.e., amikacin) and 1-N-{(S)-4-amino-2-hydroxybutyryl}-3,4-dideoxykanamycin B (i.e., habekacin) were also measured in the same manner.

Series [2] has as its system Staphylococcus aureus Ap 01. To be noted: reported in earlier applications; cited from earlier work.
Series [3] has as its system Staphylococcus epidermidis 109. Conditions: reported in earlier applications; cited from earlier work.
Another series deals with Bacillus subtilis PCI219. In words: MIC, standard serial dilution method. The format is cell-based. Conditions: PCI219, pH 7, read-out: MIC. As for the experimental part: as §1
Series [4] deals with Corynebacterium bovis 1810. In words: MIC, standard serial dilution method. To be noted: Corynebacterium bovis, 1810, pH 7; read-out: MIC. It counts as cell-based. The method, then: as §1
The test system of a further series is Escherichia coli JR 225. In words: MIC, standard serial dilution method. The format is cell-based. Conditions: JR225, pH 7. As for the experimental part: as §1
Series [5] deals with Escherichia coli K-12 LA 290 R55. In words: MIC, standard serial dilution method. To be noted: K12LA290R55, pH 7. It counts as cell-based. The method, then: as §1
Series [6] concerns Escherichia coli K-12 ML 1629. Put plainly: MIC, standard serial dilution method. It counts as cell-based. Conditions: K12ML1629, pH 7, read-out: MIC. As for the experimental part: as §1
The next series concerns Escherichia coli K-12. In words: MIC, standard serial dilution method. Conditions: K12, pH 7. The format is cell-based. As for the experimental part:
as §1

Series [7] concerns Klebsiella pneumoniae 22 #3038. Put plainly: MIC, standard serial dilution method. It counts as cell-based. Conditions: pH 7, read-out: MIC. As for the experimental part:
as §1

The test system of a further series is Mycobacterium 607. Put plainly: MIC, standard serial dilution method. It counts as cell-based. Conditions: Mycobacterium, 607, pH 7; read-out: MIC. The method, then:
as §1

The subject of a further series is Proteus rettgeri GN 311. Put plainly: MIC, standard serial dilution method. The format is cell-based. To be noted: Providencia rettgeri, GN311, pH 7; read-out: MIC. As for the experimental part: as §1
Another series deals with Providencia sp. Pv 16. In words: MIC, standard serial dilution method. The format is cell-based. Conditions: SP.PV16, pH 7, read-out: MIC. As for the experimental part: as §1
The subject of series [8] is Pseudomonas aeruginosa A3. Put plainly: MIC, standard serial dilution method. It counts as cell-based. Conditions: A3, pH 7, read-out: MIC. As for the experimental part:
as §1

In series [9] the test system is Pseudomonas aeruginosa GN 315. In words: MIC, standard serial dilution method. It counts as cell-based. Conditions: GN315, pH 7. The method, then: as §1
In the next series the test system is Serratia marcescens. Put plainly: MIC, standard serial dilution method. It counts as cell-based. Conditions: pH 7, read-out: MIC. As for the experimental part:
as §1

Series [10] deals with Staphylococcus aureus 209P. Put plainly: MIC, standard serial dilution method. The format is cell-based. Conditions: pH 7, read-out: MIC. The method, then:
as §1

Series [11] concerns Staphylococcus aureus Ap01. In words: MIC, standard serial dilution method. Conditions: AP01, pH 7, read-out: MIC. The format is cell-based. As for the experimental part: as §1
The subject of the next series is Escherichia coli K-12 R5. In words: MIC, standard serial dilution method. It counts as cell-based. To be noted: K12R5, pH 7. The method, then: as §1
Infectious diseases by Escherichia coli K-12 R5 tend to increase in recent days. The compounds of this invention are therefore important for the therapeutic treatment of bacterial infections.

Series [12] has as its system Escherichia coli JR66/W677. Put plainly: MIC, standard serial dilution method. It counts as cell-based. To be noted: Escherichia coli, read-out: MIC. As for the experimental part: as §1
(§2) (a) The antibacterial activities of the compounds of this invention are not decreased practically even under pH conditions of pH […] as compared to their antibacterial activities under neutral conditions of pH 7.

In series [13] the test system is Pseudomonas aeruginosa TI 13. In words: MIC, standard serial dilution method. It counts as cell-based. Conditions: Pseudomonas aeruginosa, read-out: MIC. As for the experimental part:
as §1, §2

The next series deals with mice. In words: Acute toxicity against mice. It counts as in vivo. To be noted: orally administered, 150 mg/kg.

Values after ≈ are worked out from the molar mass of the structure shown. Like-named read-outs stand apart in the source and are kept apart here.

`NC[C@H](F)[C@H](O)C(=O)N[C@@H]1C[C@H](N)[C@@H](O[C@H]2O[C@H](CN)[C@@H](O)[C@H](O)[C@H]2N)[C@H](O)[C@H]1O[C@H]1O[C@H](CO)[C@@H](O)[C@H](N)[C@H]1O` [1-N-{(2R,3S)-4-amino-3-fluoro-2-hydroxybutyryl}kanamycin B]: in series [1], the “enhancement in antibacterial activities” value is listed as “did not show any enhancement in antibacterial activities”.
For the compound `NC[C@@H]1C[C@H](F)[C@@H](N)[C@@H](O[C@H]2[C@H](O)[C@@H](O[C@H]3O[C@H](CO)[C@@H](O)[C@H](N)[C@H]3O)[C@H](N)C[C@@H]2N)O1` [3',4'-dideoxy-3'-fluorokanamycin B], the “effective against resistant strain” value in [2] and in series [3] was “effective against such certain resistant strains of bacteria” throughout.
On to `NC[C@@H](F)[C@H](O)C(=O)N[C@@H]1C[C@H](N)[C@@H](O[C@@H]2CC[C@H](O)[C@@H](CN)O2)[C@H](O)[C@H]1O[C@H]1O[C@H](CO)[C@@H](O)[C@H](N)[C@H]1O` [Invention Compound No. 2, 1-N-{(2R,3R)-4-Amino-3-fluoro-2-hydroxybutyryl}-2',3'-dideoxykanamycin A], for which the MIC turned out to be 0.78 µg/mL (≈ 1.36 µM) in the series on Bacillus subtilis PCI219; 0.78 µg/mL (≈ 1.36 µM) in [4]; 0.39 µg/mL (≈ 0.682 µM) in the series on Escherichia coli JR 225; 0.78 µg/mL (≈ 1.36 µM) in series [5]; 0.78 µg/mL (≈ 1.36 µM) in [6]; 0.39 µg/mL (≈ 0.682 µM) with Escherichia coli K-12. For the same compound, the minimum inhibitory concentration (MIC) in [7] stood at 3.12 µg/mL (≈ 5.46 µM); in the series with Mycobacterium 607, 1.56 µg/mL (≈ 2.73 µM); in the series on Proteus rettgeri GN 311, 0.78 µg/mL (≈ 1.36 µM); with Providencia sp. Pv 16, 1.56 µg/mL (≈ 2.73 µM); in series [8] it was 0.78 µg/mL (≈ 1.36 µM); in [9], 12.5 µg/mL (≈ 21.9 µM). Besides, the MIC with Serratia marcescens turned out to be 3.12 µg/mL (≈ 5.46 µM); in [10], 0.2 µg/mL (≈ 0.35 µM); in series [11], 1.56 µg/mL (≈ 2.73 µM); with Escherichia coli K-12 R5, 6.25 µg/mL (≈ 10.9 µM); in series [12] (JR66/W677, pH 7), 1.56 µg/mL (≈ 2.73 µM); in series [12] (JR66/W677, measured at pH 6), 6.25 µg/mL (≈ 10.9 µM). Moreover, the MIC in series [13] (TI13, pH 7) is 3.12 µg/mL (≈ 5.46 µM); in series [13] (TI13, measured at pH 6), 3.12 µg/mL (≈ 5.46 µM). For the same compound, the survival of mice result with mice is “all mice surrived”.
